Results from PMC6707612, “Cyclic-di-GMP binds to histidine kinase RavS to control RavS-RavR phosphotransfer and regulates the bacterial lifestyle transition between virulence and swimming” (PLoS Pathogens, 2019).
Where “and” joins values, the source holds several entries; their conditions need not be identical. Identical values can stand only once.

Assays:
[1] = biological target: T1, RavR^ΔEAL (Xanthomonas campestris pv. campestris, UniProt Q8P9A7); experiment: microscale thermophoresis (MST) binding; details: 20 nM fluorescein-labelled nucleotide, read-out: dissociation constant (Kd)
T1 sequence (Q8P9A7 with tags, fused parts or gaps): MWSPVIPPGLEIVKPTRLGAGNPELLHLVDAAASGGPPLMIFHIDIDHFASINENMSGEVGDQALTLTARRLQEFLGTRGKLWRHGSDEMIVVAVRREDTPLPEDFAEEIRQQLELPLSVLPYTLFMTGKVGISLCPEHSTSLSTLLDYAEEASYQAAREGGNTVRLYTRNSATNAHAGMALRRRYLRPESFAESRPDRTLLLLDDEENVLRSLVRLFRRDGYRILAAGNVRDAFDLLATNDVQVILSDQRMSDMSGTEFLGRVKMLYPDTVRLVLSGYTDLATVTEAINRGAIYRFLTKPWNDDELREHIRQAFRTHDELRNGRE

[2] = biological target: T2, RavS^ΔN (Xanthomonas campestris pv. campestris, UniProt Q8P9A6); experiment: in vitro autophosphorylation assay; type: biochemical; details: 100 μM c-di-GMP, no RavR added
T2 sequence (Q8P9A6 352-697): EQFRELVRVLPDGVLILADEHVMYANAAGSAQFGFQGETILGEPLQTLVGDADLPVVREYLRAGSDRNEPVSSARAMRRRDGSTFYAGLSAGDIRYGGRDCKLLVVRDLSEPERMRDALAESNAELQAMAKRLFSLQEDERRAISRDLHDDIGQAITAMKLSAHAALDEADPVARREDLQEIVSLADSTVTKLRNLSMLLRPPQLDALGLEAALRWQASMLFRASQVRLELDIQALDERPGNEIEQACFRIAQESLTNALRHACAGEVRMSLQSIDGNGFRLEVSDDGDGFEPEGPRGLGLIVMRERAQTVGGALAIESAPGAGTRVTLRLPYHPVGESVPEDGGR
Protocol: (a) c-di-GMP enhances RavS-RavR phosphotransfer in vitro. A total of 5 μM RavS^ΔN was autophosphorylated for 15 min by the addition of 10 μCi [γ-^32P]ATP. A total of 15 μM RavR^ΔEAL or RavR^ΔEAL(D496A) was added and incubated for 30 min at 25°C. A total of 100 μM c-di-GMP was added if necessary. The reactions were terminated with 5× SDS loading buffer before autoradiography. The experiment was repeated three times. (b) Time course analyses of the impact of c-di-GMP on the velocity of RavS-RavR phosphotransfer. The autophosphorylation and phosphotransfer reactions were set as mentioned in (a). Various concentrations of c-di-GMP were added to the reactions and isotopic signals (band intensities) of RavS~P were measured after autoradiography. (c–d) c-di-GMP triggered an increase in RavS-RavR phosphotransfer in a dose-dependent manner. […] (d) The phosphorylated level of RavS^ΔN~P was quantified by ImageJ and the EC50 value was estimated by Origin 8.5 software. […] The interaction between RavS^ΔTrM and various nucleotides, including fl-c-di-GMP, fl-cGMP and fl-c-di-AMP, were measured by microscale thermophoresis (MST). A total of 20 nM fluorescein-labelled nucleotides and increasing concentrations of proteins were incubated and measured by MST. The dissociation constant (Kd) was quantified to estimate the binding affinity. […]

[3] = biological target: STING; parameters: method as in PMID 26055114; details: upper end of reported range; cited from earlier work

For `Nc1nc2c(ncn2[C@@H]2O[C@@H]3COP(=O)(O)O[C@H]4[C@@H](OC(=O)NCCCCCCNC(=O)c5ccc6c(c5)C(=O)OC65c6ccc(O)cc6Oc6cc(O)ccc65)[C@H](n5cnc6c(=O)[nH]c(N)nc65)O[C@@H]4COP(=O)(O)O[C@H]3[C@H]2O)c(=O)[nH]1` [fl-c-di-GMP, 2′-Fluo-AHC-c-di-GMP], the Kd [1] was 111 µM and > 80 µM.

For `Nc1nc2c(ncn2[C@@H]2O[C@@H]3COP(=O)(O)O[C@H]4[C@@H](O)[C@H](n5cnc6c(=O)[nH]c(N)nc65)O[C@@H]4COP(=O)(O)O[C@H]3[C@H]2O)c(=O)[nH]1` [c-di-GMP, Cyclic di-GMP], the “effect on RavS^ΔN autophosphorylation (autokinase activity)” value [2] is listed as “does not affect” and the Kd [3] is listed as 14.5 µM.
